# System: green peach aphid (Myzus persicae)
# Assay: Myzus test (MYZUPE spray treatment), Chinese cabbage leaf discs
# Assay type: in vivo
# Settings: foliar, application rate of 500 g/ha, spray on Chinese cabbage discs, read-out: effect in % (aphids killed)
# Method: Myzus Test (MYZUPE Spray Treatment)
# Solvents: 78 parts by weight of acetone • • 1.5 parts by weight of dimethylformamide Emulsifier: 0.5 part by weight of alkylaryl polyglycol ether
# An appropriate preparation of active ingredient is prepared by mixing 1 part by weight of active ingredient with the stated amounts of solvents and emulsifier and diluting the concentrate with emulsifier-containing water to the desired concentration.
# Discs of Chinese cabbage (Brassica pekinensis) infested with all stages of the green peach aphid (Myzus persicae) are sprayed with a preparation of active ingredient at the desired concentration.
# After the desired time, the effect in % is determined. Here, 100% means that all of the aphids have been killed; 0% means that no aphids have been killed.
row,Compound,pest or weed control at 500 g/ha
1,COc1ccc(C(=O)N(C)c2cccnc2)cc1NC(=O)C1CCCC1 [I-333],≥ 80%
2,CCn1ncc(C(=O)Nc2cccnc2)c1C(F)(F)F [I-287],≥ 80%
3,CCc1nn(C)cc1C(=O)N(C)c1ccnnc1 [I-326],≥ 80%
4,Cc1ccc(C(=O)N(C)c2cccnc2)cc1[N+](=O)[O-] [I-295],≥ 80%
5,CC(C)=CC(=O)Nc1cc(C(=O)N(C)c2cccnc2)ccc1C [I-318],≥ 80%
6,CCn1cc(C(=O)N(C)c2ccnnc2)c(C)n1 [I-327],≥ 80%
7,Cc1ccc(C(=O)N(C)c2cccnc2)cc1NC(=O)OC(C)C [I-316],≥ 80%
8,COCc1c(C(=O)N(C)c2cccnc2)cnn1-c1ncccn1 [I-273],≥ 80%
9,CN(C(=O)c1cn(C)nc1C(F)F)c1ccnnc1 [I-319],≥ 80%
10,CC(C)C(=O)Nc1cc(C(=O)N(C)c2cccnc2)ccc1Cl [I-299],≥ 80%
11,CN(C(=O)c1cnn(-c2ncccn2)c1C(C)(F)F)c1cccnc1 [I-277],≥ 80%
12,CC(=O)Nc1cc(C(=O)N(C)c2cccnc2)ccc1C [I-308],≥ 80%
13,CC(=O)Nc1cc(C(=O)N(C)c2cccnc2)ccc1Cl [I-307],≥ 80%
14,Cc1ccc(C(=O)Nc2cccnc2)cc1NC(=O)C1CC1 [I-292],≥ 80%
15,CN(C(=O)c1cnn(CC(F)(F)F)c1C(F)(F)F)c1cccnc1 [I-330],≥ 80%
16,Cc1ccc(C(=O)N(C)c2cccnc2)cc1NC(=O)NC(C)C [I-314],≥ 80%
17,CC(=O)Nc1cccc(C(=O)N(C)c2cccnc2)c1 [I-283],≥ 80%
18,CCC(C)C(=O)Nc1cc(C(=O)N(C)c2cccnc2)ccc1C (stereo not shown) [I-311],≥ 80%
19,CC(C)C(=O)Nc1cccc(C(=O)Nc2cccnc2)c1 [I-286],≥ 80%
20,CC(C)n1ncc(C(=O)Nc2cccnc2)c1C(F)(F)F [I-285],≥ 80%
21,"Cc1ccc(C(=O)N(C)c2cccnc2)cc1NC(=O)C(C)C [I-300, 3-Isobutyrylamino-4,N-dimethyl-N-pyridin-3-ylbenzamide]",≥ 80%
22,COc1ccc(C(=O)N(C)c2cccnc2)cc1NC(=O)C(C)(C)C [I-303],≥ 80%

row,Compound,pest or weed control at 500 g/ha
1,CN(C(=O)c1cnn(-c2ncccc2Cl)c1C(F)(F)F)c1cccnc1 [I-272],≥ 80%
2,O=C(Nc1cccnc1)c1cnn(CC(F)(F)F)c1-c1cnccn1 [I-257],≥ 80%
3,CN(C(=O)c1csc(-c2ncccc2Cl)n1)c1cccnc1 [I-278],≥ 80%
4,CCC(=O)Nc1cc(C(=O)N(C)c2cccnc2)ccc1OC [I-331],≥ 80%
5,CC(C)C(=O)Nc1cc(C(=O)N(C)c2cccnc2)ccc1F [I-298],≥ 80%
6,CN(C(=O)c1cn(C)nc1C1CC1)c1ccnnc1 [I-324],≥ 80%
7,CCC(C)C(=O)Nc1cc(C(=O)N(C)c2cccnc2)ccc1OC (stereo not shown) [I-332],≥ 80%
8,COc1ccc(C(=O)N(C)c2cccnc2)cc1[N+](=O)[O-] [I-294],≥ 80%
9,"CN(C(=O)c1cnn(-c2ncccn2)c1C(F)(F)F)c1cccnc1 [I-268, 1-Pyrimidin-2-yl-5-trifluoromethyl-1H-pyrazole-4-carboxylic acid methylpyridin-3-ylamide]",≥ 80%
10,CC(C)n1ncc(C(=O)N(C)c2cccnc2)c1C(F)(F)F [I-329],≥ 80%
11,C/C=C/C(=O)Nc1cc(C(=O)N(C)c2cccnc2)ccc1C [I-317],≥ 80%
12,CC(C)Oc1ccc(C(=O)N(C)c2cccnc2)cc1-n1ccc(C(F)(F)F)n1 [I-279],≥ 80%
13,CN(C(=O)c1ccc(F)c(NC(=O)C2CC2)c1)c1cccnc1 [I-301],≥ 80%
14,COc1ccc(C(=O)Nc2cccnc2)cc1OC [I-263],≥ 80%
15,"COc1ccc(C(=O)N(C)c2cccnc2)cc1-n1cccn1 [I-280, 4-Methoxy-N-methyl-3-pyrazol-1-yl-N-pyridin-3-ylbenzamide]",≥ 80%
16,Cc1ccc(C(=O)N(C)c2cccnc2)cc1NC(=O)C(C)(C)C [I-305],≥ 80%
17,O=C(Nc1cccnc1)c1ccc(F)c(C(F)(F)F)c1 [I-258],≥ 80%
18,COCC(=O)Nc1cc(C(=O)N(C)c2cccnc2)ccc1OC [I-335],≥ 80%
19,CCCC(=O)Nc1cc(C(=O)N(C)c2cccnc2)ccc1C [I-315],≥ 80%
20,COc1ccc(C(=O)N(C)c2cccnc2)cc1NC(=O)C(C)C [I-297],≥ 80%
21,O=C(Nc1cccnc1)c1ccc(OC(F)(F)F)cc1 [I-264],≥ 80%

# Same assay, conditions: foliar, application rate of 500 ppm, spray on Chinese cabbage discs, read-out: effect in % (aphids killed)
row,Compound,pest or weed control at 500 ppm
1,CN(C(=O)c1ccc(S(C)(=O)=O)c(N)c1)c1cccnc1 [I-296],≥ 80%

# System: green peach aphid (Myzus persicae)
# Assay: Myzus test (MYZUPE), sprayed aubergine plants
# Assay type: in vivo
# Settings: application rate of 500 ppm, spray on aubergine plants, read-out: effect in % (aphids killed)
# Method: Solvent: 3 parts by weight of dimethylformamide Emulsifier: 1 part by weight of polyoxyethylenealkyl phenyl ether
# An appropriate preparation of active ingredient is prepared by mixing 1 part by weight of active ingredient with the stated amount of solvent and emulsifier and diluting the concentrate with water to the desired concentration.
# Aubergine plants (Solanum melongena) infested by all stages of the green peach aphid (Myzus persicae) are sprayed with a preparation of active ingredient at the desired concentration.
# After the desired time, the effect in % is determined; here, 100% means that all of the aphids have been killed. Conversely, 0% means that no aphids have been killed.
row,Compound,pest or weed control at 500 ppm
1,Cc1cc(C)nc(Sc2ccc(C(=O)N(Cc3ccc(OC(F)(F)F)cc3)c3cccnc3)cn2)n1 [I-230],≥ 80%
2,CCN(C(=O)c1ccc(Oc2ccc(C)cn2)nc1)c1cccnc1 [I-193],≥ 80%
3,CCCSCc1ccc(C(=O)Nc2cccnc2)cc1 [I-39],≥ 80%
4,COc1ccc(C(=O)N(C)c2cccnc2)cn1 [I-155],≥ 80%
5,CN(C(=O)c1cnc(Oc2ccc(OC(F)(F)F)cc2)c(Cl)c1)c1cccnc1 [I-147],≥ 80%
6,C=CCN(C(=O)c1ccc(Sc2nc(C)cc(C)n2)nc1)c1cccnc1 [I-224],≥ 80%
7,CCN(C(=O)c1ccc(Oc2nc(OC)cc(OC)n2)nc1)c1cccnc1 [I-169],≥ 80%
8,C=CCN(C(=O)c1ccc(Cl)nc1)c1cccnc1 [I-231],≥ 80%
9,O=C(Nc1cccnc1)c1ccc(Cn2nc(C(F)(F)F)cc2C(F)(F)F)nc1 [I-9],≥ 80%
10,CCCNc1ccc(C(=O)Nc2cccnc2)cn1 [I-209],≥ 80%
11,Cc1ccc(Oc2ccc(C(=O)Nc3cccnc3)cc2)cn1 [I-103],≥ 80%
12,O=C(Nc1cccnc1)c1ccc(Oc2ccccc2Cl)nc1 [I-82],≥ 80%
13,Cc1cc(C)nc(Sc2ccc(C(=O)N(Cc3ccccc3)c3cccnc3)cn2)n1 [I-227],≥ 80%
14,CN(C(=O)c1ccc(Oc2cc(C(F)(F)F)cc(C(F)(F)F)c2)nc1)c1cccnc1 [I-124],≥ 80%
15,CC(C)SCc1ccc(C(=O)Nc2cccnc2)cc1 [I-34],≥ 80%
16,COc1nc(OC)nc(Sc2ccc(C(=O)Nc3cccnc3)cc2)n1 [I-188],≥ 80%
17,CCCCSCc1ccc(C(=O)Nc2cccnc2)cc1 [I-40],≥ 80%
18,CSCc1ccc(C(=O)N(C)c2cccnc2)cn1 [I-64],≥ 80%
19,CCCSCc1ccc(C(=O)N(C)c2cccnc2)cc1 [I-60],≥ 80%
20,O=C(Nc1cccnc1)c1ccc(Cn2cnc(C(F)(F)C(F)(F)F)n2)cc1 [I-17],≥ 80%
21,CSc1ccc(C(=O)N(C)c2cccnc2)cc1 [I-53],≥ 80%
22,CN(C(=O)c1ccc(SC(F)(F)F)cc1)c1cccnc1 [I-54],≥ 80%
23,COc1cc(OC)nc(Sc2ccc(C(=O)Nc3cccnc3)cc2)n1 [I-176],≥ 80%
